Laboratory results reported in US20230310660A1, “SHELF-STABLE INDOCYANINE GREEN SOLUTIONS AND METHODS OF MAKING THE SAME” (CAO Group, Inc., priority 2020, published 2023).

Legend:
[1] = Shelf stability of indocyanine green dissolved in water-free organic solvent; assay type: physicochemical; conditions: absence of water, room temperature
From the text: Through experimentation, it has been determined that the biggest cause of instability within ICG solutions to be nothing other than water and the second most recognizable factor is temperature. Therefore, with the instability factors identified the present invention identifies by way of experimentation with other solutions within which ICG is stable. An embodiment of the present invention utilizes organic liquids to create shelf stable ICG solutions. The present invention is a method of creating a shelf-stable, liquid, indocyanine green solution.
More importantly, the type of organic solvent selected is not the important factor for stability—only the absence of water is required.
When creating the solution, the manufacturing method is to add the ICG to the solvent(s) and stir until it dissolves. Thereafter the solution is loading in an airtight sealed container, thereby preventing the introduction of ambient air, which may contain water vapor, into the container.

[2] = after mixing with water; cited from earlier work

shelf stable (shelf life of solution) [1]: up to 1 year | shelf stable (shelf life of solution) ([1]; listed as ICG): up to one
Structure (SMILES): CC1(C)C(/C=C/C=C/C=C/C=C2\N(CCCCS(=O)(=O)O)c3ccc4ccccc4c3C2(C)C)=[N+](CCCCS(=O)(=O)[O-])c2ccc3ccccc3c21 [indocyanine green]
shelf life of ICG solutions (unstable) [2]: a few days
